In US20240383856A1 (Zedira GmbH, priority 2021, published 2024):

Experiments:
[1] = target: T1, recombinant human transglutaminase 2 (Homo sapiens, UniProt P21980); test: Transglutaminase assay (DCC-assay): incorporation of dansylcadaverine into dimethylcasein; format: biochemical; conditions: recombinant human TG2 10 nM; dansylcadaverine incorporation into dimethylcasein; read-out: IC50 TG2
T1 construct: purchased Zedira T022
T1 sequence (P21980 1-687): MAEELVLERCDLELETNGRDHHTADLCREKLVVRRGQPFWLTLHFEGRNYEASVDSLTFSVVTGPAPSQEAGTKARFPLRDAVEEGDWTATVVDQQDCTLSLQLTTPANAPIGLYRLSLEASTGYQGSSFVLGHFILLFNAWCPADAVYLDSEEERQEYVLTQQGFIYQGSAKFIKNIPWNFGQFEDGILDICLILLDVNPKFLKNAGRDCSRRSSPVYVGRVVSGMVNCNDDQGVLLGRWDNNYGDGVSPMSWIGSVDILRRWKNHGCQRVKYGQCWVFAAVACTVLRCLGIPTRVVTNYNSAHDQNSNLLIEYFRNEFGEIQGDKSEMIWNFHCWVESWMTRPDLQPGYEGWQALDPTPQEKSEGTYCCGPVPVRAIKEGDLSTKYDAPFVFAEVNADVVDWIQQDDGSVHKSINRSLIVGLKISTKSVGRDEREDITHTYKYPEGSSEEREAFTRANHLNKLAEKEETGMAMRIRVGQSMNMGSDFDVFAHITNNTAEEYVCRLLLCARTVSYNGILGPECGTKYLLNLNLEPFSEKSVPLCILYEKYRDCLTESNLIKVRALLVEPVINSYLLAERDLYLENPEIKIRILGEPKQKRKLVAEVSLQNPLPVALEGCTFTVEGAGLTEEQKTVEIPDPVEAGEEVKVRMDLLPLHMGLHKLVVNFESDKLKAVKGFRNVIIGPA
Outline: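 Recombinant human TG2 (10 nM final) incorporates dansylcadaverine into N,N-dimethylcasein. Reaction mix: 50 mM Tris-HCl, 10 mM CaCl2, 10 mM glutathione, 2.5% glycerol, 16.7 µM dansylcadaverine, 4 µM dimethylcasein, 200 mM NaCl, pH 8.0. Fluorescence (ex 330/em 500 nm) was followed 30 min at 37 °C; the 20–30 min slope, expressed as % of 2% DMSO control, gave IC50.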

[2] = logD by shake flask method (octanol / PBS pH 7.4, HPLC); format: physicochemical; conditions: octanol / PBS pH 7.4, shake flask
Outline: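 Shake-flask partition of compound between octanol and phosphate-buffered saline at pH 7.4, with each phase quantified by HPLC to give LogD.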

[3] = Caco-2 permeability assay (CacoReady kit); format: in vitro ADME; conditions: human, Caco-2, Caco-2 barrier, CacoReady kit; above 1×10^−6 cm/s classified as permeable
Outline: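 Read-out is the permeability coefficient Papp, obtained from transport across a Caco-2 barrier prepared from a ready-to-use kit following the manufacturer's instructions.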

Row | IC50 [1] [nM] | logD [2] | Papp [3] [×10⁻⁶ cm/s] | SMILES
1 | 400 to 2500 | 1 to 3 | < 1 | CNC(=O)C(=O)CC[C@H](NC(=O)c1c(C)nc2sccn12)C(=O)Nc1cccn(CC(=O)NC2C3CC4CC(C3)CC2C4)c1=O (stereo partly drawn) [II-66, (S)-N1-(1-(2-(2-adamantylamino)-2-oxoethyl)-2-oxo-1,2-dihydropyridin-3-yl)-N6-methyl-2-(6-methylimidazo[2,1-b]thiazole-5-carboxamido)-5-oxohexanediamide]
2 | 40 to 400 | 3 to 5 | < 1 | CNC(=O)C(=O)CC[C@H](NC(=O)c1cc2ccccc2o1)C(=O)Nc1cccn(CC(=O)NC(C)C23CC4CC(CC(C4)C2)C3)c1=O (stereo partly drawn) [II-88]
3 | 40 to 400 | 1 to 3 | 1 to 10 | CNC(=O)C(=O)CC[C@H](NC(=O)c1oc2ccccc2c1C)C(=O)Nc1cccn(CC(=O)NC2CC3C=CC2C3)c1=O (stereo partly drawn) [II-97, (S)-N1-(1-(2-(bicyclo[2.2.1]hept-5-en-2-ylamino)-2-oxoethyl)-2-oxo-1,2-dihydropyridin-3-yl)-N6-methyl-2-(3-methylbenzofuran-2-carboxamido)-5-oxohexanediamide]
4 | 400 to 2500 | 1 to 3 | 1 to 10 | CNC(=O)C(=O)CC[C@H](NC(=O)c1sc(C)nc1C)C(=O)Nc1cccn(CC(=O)NC2C3CC4CC(C3)CC2C4)c1=O (stereo partly drawn) [II-20, (S)-2-(2,4-dimethylthiazole-5-carboxamido)-N1-(1-(2-(2-adamantylamino)-2-oxoethyl)-2-oxo-1,2-dihydropyridin-3-yl)-N6-methyl-5-oxohexanediamide]
5 | 40 to 400 | 1 to 3 | < 1 | CNC(=O)C(=O)CC[C@H](NC(=O)[C@@H]1CCCCN1)C(=O)Nc1cccn(CC(=O)NC2C3CC4CC(C3)CC2C4)c1=O (stereo partly drawn) [II-58, (S)-N1-(1-(2-(2-adamantylamino)-2-oxoethyl)-2-oxo-1,2-dihydropyridin-3-yl)-N6-methyl-5-oxo-2-((S)-piperidine-2-carboxamido)hexanediamide]
6 | < 40 | 3 to 5 | 1 to 10 | CNC(=O)C(=O)CC[C@H](NC(=O)c1cc2c(Br)cccc2o1)C(=O)Nc1cccn(CC(=O)NC2C3CC4CC(C3)CC2C4)c1=O (stereo partly drawn) [II-5, (S)-2-(4-bromobenzofuran-2-carboxamido)-N1-(1-(2-(2-adamantylamino)-2-oxoethyl)-2-oxo-1,2-dihydropyridin-3-yl)-N6-methyl-5-oxohexanediamide]
7 | 400 to 2500 | 1 to 3 | < 1 | CNC(=O)C(=O)CC[C@H](NC(=O)c1oc2ccccc2c1C)C(=O)Nc1cccn(CC(=O)NC2(C(=O)OC)C3CC4CC(C3)CC2C4)c1=O (stereo partly drawn) [II-74, (S)-N1-(1-(2-(2-methyladamantane-2-carboxylate-2-amino)-2-oxoethyl)-2-oxo-1,2-dihydropyridin-3-yl)-N6-methyl-2-(3-methylbenzofuran-2-carboxamido)-5-oxohexanediamide]
8 | 40 to 400 | 3 to 5 | 1 to 10 | CC(C)NC(=O)C(=O)CC[C@H](NC(=O)c1cc2ccccc2o1)C(=O)Nc1cccn(CC(=O)NC2C3CC4CC(C3)CC2C4)c1=O (stereo partly drawn) [II-120, (S)-2-(benzofuran-2-carboxamido)-N6-isopropyl-N1-(1-(2-(2-adamantylamino)-2-oxoethyl)-2-oxo-1,2-dihydropyridin-3-yl)-5-oxohexanediamide]
9 | 40 to 400 | 3 to 5 | 1 to 10 | CNC(=O)C(=O)CC[C@H](NC(=O)c1scc(Br)c1C)C(=O)Nc1cccn(CC(=O)NC2C3CC4CC(C3)CC2C4)c1=O (stereo partly drawn) [II-41, (S)-2-(4-bromo-3-methylthiophene-2-carboxamido)-N1-(1-(2-(2-adamantylamino)-2-oxoethyl)-2-oxo-1,2-dihydropyridin-3-yl)-N6-methyl-5-oxohexanediamide]
10 | 400 to 2500 | < 1 | < 1 | CNC(=O)C(=O)CC[C@H](NC(=O)c1cnn(C)c1)C(=O)Nc1cccn(CC(=O)NC2C3CC4CC(C3)CC2C4)c1=O (stereo partly drawn) [II-139, (S)-N1-(1-(2-(2-adamantylamino)-2-oxoethyl)-2-oxo-1,2-dihydropyridin-3-yl)-N6-methyl-2-(1-methyl-1H-pyrazole-4-carboxamido)-5-oxohexanediamide]
11 | 400 to 2500 | 3 to 5 | 1 to 10 | O=C(Cn1cccc(NC(=O)[C@H](CCC(=O)C(=O)NCc2ccccc2)NC(=O)c2cc3ccccc3o2)c1=O)NC1C2CC3CC(C2)CC1C3 (stereo partly drawn) [II-123, (S)-2-(benzofuran-2-carboxamido)-N6-benzyl-N1-(1-(2-(2-adamantylamino)-2-oxoethyl)-2-oxo-1,2-dihydropyridin-3-yl)-5-oxohexanediamide]
12 | 40 to 400 | 3 to 5 | 1 to 10 | CNC(=O)C(=O)CC[C@H](NC(=O)c1oc2ccccc2c1C)C(=O)Nc1cccn(CC(=O)N[C@@H]2C[C@H]3CC[C@]2(C)C3(C)C)c1=O [II-99, (S)-N1-methyl-5-(3-methylbenzofuran-2-carboxamido)-2-oxo-N6-(2-oxo-1-(2-oxo-2-((1R,2R,4R)-1,7,7-trimethylbicyclo[2.2.1]heptan-2-ylamino)ethyl)-1,2-dihydropyridin-3-yl)hexanediamide]
13 | 40 to 400 | < 1 | < 1 | CNC(=O)C(=O)CC[C@H](NC(=O)c1snnc1CO)C(=O)Nc1cccn(CC(=O)NC2C3CC4CC(C3)CC2C4)c1=O (stereo partly drawn) [II-206, (S)-2-(4-(hydroxymethyl)-1,2,3-thiadiazole-5-carboxamido)-N1-(1-(2-(2-adamantylamino)-2-oxoethyl)-2-oxo-1,2-dihydropyridin-3-yl)-N6-methyl-5-oxohexanediamide]
14 | 40 to 400 | 3 to 5 | 1 to 10 | C=CCNC(=O)C(=O)CC[C@H](NC(=O)c1cc2ccccc2o1)C(=O)Nc1cccn(CC(=O)NC2C3CC4CC(C3)CC2C4)c1=O (stereo partly drawn) [II-119, (S)-N1-allyl-5-(benzofuran-2-carboxamido)-N6-(1-(2-(2-adamantylamino)-2-oxoethyl)-2-oxo-1,2-dihydropyridin-3-yl)-2-oxohexanediamide]
15 | < 40 | 3 to 5 | < 1 | CNC(=O)C(=O)CC[C@H](NC(=O)c1oc2ccccc2c1C)C(=O)Nc1cccn(CC(=O)NC2C3CC4CC2CC(C)(C4)C3)c1=O (stereo partly drawn) [II-72, (S)-N1-(1-(2-(5-methyladamantane-2-amino)-2-oxoethyl)-2-oxo-1,2-dihydropyridin-3-yl)-N6-methyl-2-(3-methylbenzofuran-2-carboxamido)-5-oxohexanediamide]
16 | 40 to 400 | 3 to 5 | 1 to 10 | CNC(=O)C(=O)CC[C@H](NC(=O)c1oc2ccccc2c1C)C(=O)Nc1cccn(CC23CC4CC(CC(C4)C2)C3)c1=O [II-107, (S)-N1-(1-(1-adamantylmethyl)-2-oxo-1,2-dihydropyridin-3-yl)-N6-methyl-2-(3-methylbenzofuran-2-carboxamido)-5-oxohexanediamide]
17 | 40 to 400 | 3 to 5 | < 1 | CNC(=O)C(=O)CC[C@H](NC(=O)c1sc(Br)c(Br)c1OC)C(=O)Nc1cccn(CC(=O)NC2C3CC4CC(C3)CC2C4)c1=O (stereo partly drawn) [II-46, (S)-2-(4,5-dibromo-3-methoxythiophene-2-carboxamido)-N1-(1-(2-(2-adamantylamino)-2-oxoethyl)-2-oxo-1,2-dihydropyridin-3-yl)-N6-methyl-5-oxohexanediamide]
18 | < 40 | < 1 | 1 to 10 | Cc1c(C(=O)N[C@@H](CCC(=O)C(N)=O)C(=O)Nc2cccn(CC(=O)N[C@@H]3C[C@@H]4CC[C@H]3C4)c2=O)oc2ccccc12 [II-149, (S)-N1-(1-(2-((1S,2R,4R)-bicyclo[2.2.1]heptan-2-ylamino)-2-oxoethyl)-2-oxo-1,2-dihydropyridin-3-yl)-2-(3-methylbenzofuran-2-carboxamido)-5-oxohexanediamide]
19 | 40 to 400 | 1 to 3 | < 1 | CCc1nnsc1C(=O)N[C@@H](CCC(=O)C(=O)NC)C(=O)Nc1cccn(CC(=O)NC2C3CC4CC(C3)CC2C4)c1=O (stereo partly drawn) [II-204, (S)-2-(4-ethyl-1,2,3-thiadiazole-5-carboxamido)-N1-(1-(2-(2-adamantylamino)-2-oxoethyl)-2-oxo-1,2-dihydropyridin-3-yl)-N6-methyl-5-oxohexanediamide]
